For assay [1], the target named is T1, PDE5 (Cavia porcellus, UniProt H0VD23).
T1 construct: partially separated from guinea pig lungs and hearts; from tissue; host or cells: guinea pig lungs and hearts
The assay can be described thus: Inhibition of PDE5 activity (two-step radioenzymatic assay). Conditions: mean ± SEM (n); read-out: IC50 on PDE isozyme 5. The assay is classed as biochemical, guinea pig. As to the method:
Activities of PDE1–5, partially separated from guinea pig lungs and hearts according to the method described by Ko et al., were measured with a two-step procedure according to the method of Thompson and Appleman, using cAMP with [^3H]-cAMP or cGMP with [^3H]-cGMP as substrates. The enzyme pμreparation (25 μL) was incubated for 30 min at 37°C in a total assay volume of […] containing 50 mM Tris-HCl (pH 7.4), 3 mM MgCl2, 1 mM dithiothreitol, 0.05% BSA, 1 μM cAMP with 0.2 μCi [^3H]-cAMP as a substrate alone or in the presence of 0.1 units calmodulin with 10 μM CaCl2 or 5 μM cGMP, and 1 μM cGMP with 0.2 μCi [^3H]-cGMP as another substrate alone or in the presence of 0.1 units calmodulin with 10 μM CaCl2. […] The reagents and homogenate were mixed on ice, and the reaction was initiated by transferring the mixture to a water bath at 37°C. Following a 30-min incubation, the reaction was stopped by transferring the reaction vessel to a bath of boiling water for 3 min. After cooling on ice, 20 μL of a 1 mg/mL solution of C. atrox snake venom was added to the reaction mixture, and the mixture was incubated at 37°C for 10 min. Unreacted [^3H]-cAMP or [^3H]-cGMP was removed by the addition of 500 μL of a 1-in-1 Tris-HCl (40 mM) buffer suspension of Dowex resin (1 × 8-200) with incubation on ice for 30 min. […]

For assay [2], the system named is cAMP-phosphodiesterase (PDE). On the set-up: method as in PMID 11345692. The following applies: cited from earlier work.

Each structure is given as a SMILES string.

Consider `C=C(C)[C@@H]1C[C@@]2(C)C(=CC1=O)CC[C@@H](OC(=O)/C=C\SC)[C@@H]2C` [S-Petasin], for which the half-maximal inhibitory concentration (IC50) (in general, the midpoint of a concentration-inhibition curve) in assay [1] is greater than 100 µM. The “Inhibition of cAMP-phosphodiesterase (PDE) activity” value in assay [2] is reported as “inhibited”.

The record behind these values is paper PMC3094704, “S-Petasin, the Main Sesquiterpene of Petasites formosanus, Inhibits Phosphodiesterase Activity and Suppresses Ovalbumin-Induced Airway Hyperresponsiveness” (Evidence-based Complementary and Alternative Medicine : eCAM, 2011).
